# Values joined by “and” are separate entries in the source; they are usually repeats but may differ in a detail not shown here. Equal values may be shown once. “Also recorded” adds a separate entry of the source. Read-outs that look alike come from different tables or passages of the source.
# Assays:
# [1] = in vitro; details: human, plasma
# [2] = cyno plasma, 37° C., incubation 0 hr
# [3] = human plasma, 37° C., incubation 0 hr
# [4] = in vitro; details: monkey, plasma
# [5] = tested on: TTX-sensitive Nav channels in mouse DRG neuron; format: cell-based; details: for 1.x/1.7, partially inactivated: mTTX-S vs hNav1.7, partially inactivated
# [6] = target: T1, hNav1.7 (Homo sapiens, UniProt Q15858); assay: cell-based; format: cell-based; details: for block of hNav1.7 current: 100 pM peptide; for 1.x/1.7, fully non-inactivated: hNav1.7 vs hNav1.7, fully non-inactivated; for 1.x/1.7, partially inactivated: hNav1.7 vs hNav1.7, partially inactivated
# T1 sequence (Q15858 whole entry): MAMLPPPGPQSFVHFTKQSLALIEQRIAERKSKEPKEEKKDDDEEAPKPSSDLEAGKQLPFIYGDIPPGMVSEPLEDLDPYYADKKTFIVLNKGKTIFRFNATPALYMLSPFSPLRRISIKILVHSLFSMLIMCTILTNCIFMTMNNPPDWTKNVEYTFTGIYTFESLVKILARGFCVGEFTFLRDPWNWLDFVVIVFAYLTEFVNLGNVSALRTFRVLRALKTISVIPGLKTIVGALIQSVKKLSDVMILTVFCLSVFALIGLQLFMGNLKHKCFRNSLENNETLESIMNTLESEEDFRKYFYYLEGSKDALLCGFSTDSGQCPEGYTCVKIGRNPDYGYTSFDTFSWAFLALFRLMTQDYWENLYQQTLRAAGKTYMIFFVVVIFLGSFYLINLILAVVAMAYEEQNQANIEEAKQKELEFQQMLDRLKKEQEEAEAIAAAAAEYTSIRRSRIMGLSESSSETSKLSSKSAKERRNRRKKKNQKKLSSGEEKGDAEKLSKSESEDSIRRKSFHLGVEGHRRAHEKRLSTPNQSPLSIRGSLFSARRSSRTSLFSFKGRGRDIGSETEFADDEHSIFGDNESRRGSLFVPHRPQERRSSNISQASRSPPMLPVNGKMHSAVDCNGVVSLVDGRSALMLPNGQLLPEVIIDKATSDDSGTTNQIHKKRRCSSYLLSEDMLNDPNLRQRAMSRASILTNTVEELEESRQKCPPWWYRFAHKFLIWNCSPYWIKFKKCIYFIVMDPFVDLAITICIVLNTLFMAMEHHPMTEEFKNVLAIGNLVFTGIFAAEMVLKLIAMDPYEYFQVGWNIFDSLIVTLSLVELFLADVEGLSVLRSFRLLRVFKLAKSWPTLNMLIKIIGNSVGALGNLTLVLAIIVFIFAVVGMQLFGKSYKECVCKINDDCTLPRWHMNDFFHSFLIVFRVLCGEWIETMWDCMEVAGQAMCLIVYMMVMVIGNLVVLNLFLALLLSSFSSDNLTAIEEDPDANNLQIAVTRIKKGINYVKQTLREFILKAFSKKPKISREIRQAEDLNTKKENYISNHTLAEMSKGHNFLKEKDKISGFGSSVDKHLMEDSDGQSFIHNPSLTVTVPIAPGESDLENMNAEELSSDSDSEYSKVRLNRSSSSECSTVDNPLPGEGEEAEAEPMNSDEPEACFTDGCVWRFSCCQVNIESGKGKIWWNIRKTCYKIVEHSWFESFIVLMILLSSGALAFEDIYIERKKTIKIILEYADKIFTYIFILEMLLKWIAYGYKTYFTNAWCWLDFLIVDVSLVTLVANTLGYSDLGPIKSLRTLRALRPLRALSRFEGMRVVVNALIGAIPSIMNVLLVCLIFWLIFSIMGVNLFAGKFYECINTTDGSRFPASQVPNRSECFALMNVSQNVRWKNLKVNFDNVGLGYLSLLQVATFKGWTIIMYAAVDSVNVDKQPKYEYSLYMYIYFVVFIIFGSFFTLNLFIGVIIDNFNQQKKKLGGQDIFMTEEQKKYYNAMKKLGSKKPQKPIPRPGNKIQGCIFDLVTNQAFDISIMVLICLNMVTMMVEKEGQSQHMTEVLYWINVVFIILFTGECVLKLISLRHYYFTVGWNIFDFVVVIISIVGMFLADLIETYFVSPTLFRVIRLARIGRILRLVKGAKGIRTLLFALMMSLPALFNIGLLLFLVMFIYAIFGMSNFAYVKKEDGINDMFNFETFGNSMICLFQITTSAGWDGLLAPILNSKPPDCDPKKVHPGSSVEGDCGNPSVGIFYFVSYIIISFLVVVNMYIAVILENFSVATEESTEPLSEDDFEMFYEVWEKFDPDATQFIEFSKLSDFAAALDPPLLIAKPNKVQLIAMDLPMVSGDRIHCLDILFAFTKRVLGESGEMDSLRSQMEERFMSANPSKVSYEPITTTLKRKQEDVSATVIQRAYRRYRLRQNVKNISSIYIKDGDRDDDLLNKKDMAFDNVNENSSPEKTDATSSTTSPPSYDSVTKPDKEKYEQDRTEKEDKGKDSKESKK
# [7] = target: T2, hNav1.5 (Homo sapiens, UniProt Q14524); assay: cell-based; details: IonWorks Quattro; read-out: IC50 Nav1.5
# [8] = target: T2, hNav1.5; assay: cell-based; format: cell-based
# [9] = target: hNav1.8 (Homo sapiens, UniProt Q9Y5Y9); assay: cell-based; format: cell-based; details: WCPC, n=2
# [10] = tested on: hNav1.8; assay: cell-based; format: cell-based, human
# [11] = target: T2, hNav1.5; assay: cell-based; details: PatchXpress; * = at high concentrations compound would wash off slowly or not at all; read-out: PX hNav1.5 Tonic IC50
# [12] = target: T3, hNav1.4 (Homo sapiens, UniProt P35499); format: cell-based
# T3 sequence (P35499 whole entry): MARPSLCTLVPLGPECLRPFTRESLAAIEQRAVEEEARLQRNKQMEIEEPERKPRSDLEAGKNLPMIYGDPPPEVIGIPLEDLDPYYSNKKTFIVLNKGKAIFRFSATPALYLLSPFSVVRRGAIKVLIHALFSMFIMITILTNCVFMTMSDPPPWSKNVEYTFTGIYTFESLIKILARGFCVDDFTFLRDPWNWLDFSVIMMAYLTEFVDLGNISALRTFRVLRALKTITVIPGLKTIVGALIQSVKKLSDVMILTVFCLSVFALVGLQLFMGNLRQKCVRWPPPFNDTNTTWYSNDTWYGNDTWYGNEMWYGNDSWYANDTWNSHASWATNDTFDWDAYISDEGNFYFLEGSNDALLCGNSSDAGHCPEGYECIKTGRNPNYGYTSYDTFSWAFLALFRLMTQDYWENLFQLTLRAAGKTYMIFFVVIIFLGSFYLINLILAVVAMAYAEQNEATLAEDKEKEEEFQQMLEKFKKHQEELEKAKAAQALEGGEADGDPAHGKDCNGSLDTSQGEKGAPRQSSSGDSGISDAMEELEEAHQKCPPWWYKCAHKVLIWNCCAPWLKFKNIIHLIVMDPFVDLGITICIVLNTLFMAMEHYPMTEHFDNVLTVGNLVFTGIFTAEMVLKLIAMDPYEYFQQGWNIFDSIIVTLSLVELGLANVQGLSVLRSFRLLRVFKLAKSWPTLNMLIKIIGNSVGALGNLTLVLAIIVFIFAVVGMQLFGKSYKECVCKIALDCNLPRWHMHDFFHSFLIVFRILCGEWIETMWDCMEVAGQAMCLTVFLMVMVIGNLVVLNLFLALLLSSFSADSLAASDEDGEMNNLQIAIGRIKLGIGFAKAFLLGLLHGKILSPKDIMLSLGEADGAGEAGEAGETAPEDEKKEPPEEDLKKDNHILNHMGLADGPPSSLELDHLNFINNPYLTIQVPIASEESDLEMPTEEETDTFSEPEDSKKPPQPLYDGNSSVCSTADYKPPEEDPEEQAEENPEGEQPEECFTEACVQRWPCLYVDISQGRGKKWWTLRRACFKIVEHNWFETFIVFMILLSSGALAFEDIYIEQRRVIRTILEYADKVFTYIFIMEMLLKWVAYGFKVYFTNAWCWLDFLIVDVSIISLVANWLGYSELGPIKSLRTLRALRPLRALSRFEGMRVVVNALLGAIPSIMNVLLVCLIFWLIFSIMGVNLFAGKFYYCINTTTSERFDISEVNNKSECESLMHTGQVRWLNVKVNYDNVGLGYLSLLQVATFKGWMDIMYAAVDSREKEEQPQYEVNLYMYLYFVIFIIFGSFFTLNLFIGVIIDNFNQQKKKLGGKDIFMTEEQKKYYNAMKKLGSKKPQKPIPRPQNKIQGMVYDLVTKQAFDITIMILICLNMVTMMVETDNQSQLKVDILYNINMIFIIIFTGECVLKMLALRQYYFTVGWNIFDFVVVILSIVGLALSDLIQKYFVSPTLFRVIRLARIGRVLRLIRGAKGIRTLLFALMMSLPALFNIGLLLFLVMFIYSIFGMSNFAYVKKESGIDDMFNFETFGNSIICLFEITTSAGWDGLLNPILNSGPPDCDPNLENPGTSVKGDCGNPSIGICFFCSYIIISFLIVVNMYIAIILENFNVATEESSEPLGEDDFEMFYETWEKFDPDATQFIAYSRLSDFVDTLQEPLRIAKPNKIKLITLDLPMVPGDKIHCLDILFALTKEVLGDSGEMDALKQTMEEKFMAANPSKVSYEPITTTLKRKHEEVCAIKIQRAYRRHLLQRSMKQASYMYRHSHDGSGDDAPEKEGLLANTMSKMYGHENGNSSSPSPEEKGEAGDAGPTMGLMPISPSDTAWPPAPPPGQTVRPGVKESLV
# [13] = target: hNav1.3 (Homo sapiens, UniProt Q9NY46); format: cell-based
# [14] = tested on: male CD-1 mice; details: mouse, in vivo
# [15] = tested on: male CD-1 mice; details: mouse, in vivo; remark: listed apart in the source
# [16] = tested on: male Sprague-Dawley rats; format: in vivo, rat; details: rat, in vivo
# [17] = target: T3, hNav1.4; assay: cell-based; details: PatchXpress; * = at high concentrations compound would wash off slowly or not at all; read-out: PX hNav1.4 Tonic IC50
# [18] = target: T1, hNav1.7; assay: cell-based; details: IonWorks Quattro; read-out: IC50 Nav1.7
compound,measurement,setting,value
"CC[C@H](C)[C@H](NC(=O)[C@H](CO)NC(=O)[C@H](CCCCN)NC(=O)[C@H](CCCNC(=N)N)NC(=O)[C@@H]1CSSC[C@@H]2NC(=O)[C@H](C)NC(=O)[C@H](CCCNC(=N)N)NC(=O)[C@H](CCCCN)NC(=O)[C@H](CO)NC(=O)[C@H](CC(=O)O)NC(=O)[C@@H]3CSSC[C@H](NC(=O)[C@H](CCC(=O)O)NC(=O)[C@H](CC(C)C)NC(=O)CNC(=O)[C@H](CCC(=O)O)NC(=O)[C@H](CSSC[C@H](NC(=O)[C@@H](N)Cc4ccc(O)cc4)C(=O)N[C@@H](CCC(N)=O)C(=O)N[C@@H](CCCCN)C(=O)N[C@@H](Cc4c[nH]c5ccccc45)C(=O)N[C@@H](CCSC)C(=O)N[C@@H](Cc4c[nH]c5ccccc45)C(=O)N[C@@H]([C@@H](C)O)C(=O)N3)NC2=O)C(=O)N[C@@H](CCCCN)C(=O)N[C@@H](CC(C)C)C(=O)N[C@@H](Cc2c[nH]c3ccccc23)C(=O)N1)C(N)=O [SEQ ID NO: 138, [Glu20;Ser28]JzTx-V(1-29)]",remaining at 2 h,[1],86%
same,remaining at 4 h,[1],82%
same,remaining at 6 h,[1],72%
same,remaining at 8 h,[1],68%
same,remaining at 24 h,[1],49%
same,% Peptide Remaining,[2],100%
same,% Peptide Remaining,[3],100%
same,remaining at 2 h,[4],78%
same,remaining at 4 h,[4],75%
same,remaining at 6 h,[4],69%
same,remaining at 8 h,[4],62%
same,remaining at 24 h,[4],59%
"C#CC[C@H](N)C(=O)NCCCC[C@@H]1NC(=O)[C@H](CCCNC(=N)N)NC(=O)[C@H](CCCCN)NC(=O)[C@H](CO)NC(=O)[C@H](CC(=O)O)NC(=O)[C@@H]2CSSC[C@@H]3NC(=O)[C@H](CCCNC(=N)N)NC(=O)[C@H](CC(C)C)NC(=O)CNC(=O)[C@H](CCC(=O)O)NC(=O)[C@H](CSSC[C@H](NC(=O)[C@H](Cc4ccc(O)cc4)NC(=O)[C@@H](N)CC#N)C(=O)N[C@@H](CCC(N)=O)C(=O)N[C@@H](CCCCN)C(=O)N[C@@H](Cc4c[nH]c5ccccc45)C(=O)N[C@@H](CCCC)C(=O)N[C@@H](Cc4c[nH]c5ccccc45)C(=O)N[C@@H]([C@@H](C)O)C(=O)N2)NC(=O)[C@H](CSSC[C@@H](C(=O)N[C@@H](CCCNC(=N)N)C(=O)N[C@@H](CCCCN)C(=O)N[C@@H](CCC(=O)O)C(=O)N[C@H](C(N)=O)[C@@H](C)CC)NC(=O)[C@H](Cc2c[nH]c4ccccc24)NC(=O)[C@H](CC(C)C)NC(=O)[C@H](CCCCN)NC3=O)NC1=O [SEQ ID NO: 392, CyA-[Nle6,Lys(Pra)14,Glu28]JzTx-V(1-29)]",potency relative to JzTx-V (less potent),[5],about 3 fold
same,block of TTX-sensitive Nav current,"[5]; 300 nM SEQ ID NO:392, held at −88 mV",blocked most TTX-sensitive Nav current; also recorded: almost complete inhibition
"C#CC[C@H](N)C(=O)N[C@@H](Cc1ccc(O)cc1)C(=O)N[C@H]1CSSC[C@@H]2NC(=O)[C@@H]3CSSC[C@@H](C(=O)N[C@@H](CCCNC(=N)N)C(=O)N[C@@H](CCCCN)C(=O)N[C@H](C(=O)N[C@H](C(N)=O)[C@@H](C)CC)[C@@H](C)CC)NC(=O)[C@H](Cc4c[nH]c5ccccc45)NC(=O)[C@H](CC(C)C)NC(=O)[C@H](CCCCN)NC(=O)[C@H](CSSC[C@H](NC(=O)[C@H]([C@@H](C)O)NC(=O)[C@H](Cc4c[nH]c5ccccc45)NC(=O)[C@H](CCCC)NC(=O)[C@H](Cc4c[nH]c5ccccc45)NC(=O)[C@H](CCCCN)NC(=O)[C@H](CCC(N)=O)NC1=O)C(=O)N[C@@H](CC(=O)O)C(=O)N[C@@H](CO)C(=O)N[C@@H](CCCCN)C(=O)N[C@@H](CCCNC(=N)N)C(=O)N[C@@H](C)C(=O)N3)NC(=O)[C@H](CCCNC(=N)N)NC(=O)[C@H](CC(C)C)NC(=O)CNC(=O)[C@H](CCC(=O)O)NC2=O [SEQ ID NO: 425, Pra-[Nle6]JzTx-V]",block of hNav1.7 current,[6]; held at −77 mV (partially inactivated state),fully blocked Nav1.7 current; also recorded: complete inhibition
same,block of hNav1.7 current,[6]; held at −140 mV (fully non-inactivated state),fully blocked Nav1.7 current; also recorded: complete inhibition
same,block of TTX-sensitive Nav current,[5],blocked most TTX-sensitive Nav current
same,inhibition of TTX-sensitive sodium current,"[5]; 1 nM peptide (as printed in text), mouse DRG neurons",almost complete inhibition
same,potency relative to JzTx-V (more potent),"[5]; TTX-sensitive current, mouse DRG neurons",about 3 fold
CC[C@H](C)[C@H](NC(=O)[C@@H](NC(=O)[C@H](CCCCN)NC(=O)[C@H](CCCNC(=N)N)NC(=O)[C@@H]1CSSC[C@@H]2NC(=O)[C@H](C)NC(=O)[C@H](CCCNC(=N)N)NC(=O)[C@H](CCCCN)NC(=O)[C@H](CO)NC(=O)[C@H](CC(=O)O)NC(=O)[C@@H]3CSSC[C@H](NC(=O)[C@H](CCCNC(=N)N)NC(=O)[C@H](CC(C)C)NC(=O)CNC(=O)[C@H](CCC(=O)O)NC(=O)[C@H](CSSC[C@H](NC(=O)[C@@H](N)Cc4ccc(O)cc4)C(=O)N[C@@H](CCC(N)=O)C(=O)N[C@@H](CCCCN)C(=O)N[C@@H](Cc4c[nH]c5ccccc45)C(=O)N[C@@H](CCSC)C(=O)N[C@@H](Cc4c[nH]c5ccccc45)C(=O)N[C@@H]([C@@H](C)O)C(=O)N3)NC2=O)C(=O)N[C@@H](CCCCN)C(=O)N[C@@H](CC(C)C)C(=O)N[C@@H](Cc2c[nH]c3ccccc23)C(=O)N1)[C@@H](C)CC)C(N)=O [compound 2],IC50,[7],7.2 µM and > 7 µM
same,IC50,"[8]; WCPC, hNav1.5, fully non-inactivated, n=2",882 nM
same,"1.x/1.7, fully non-inactivated","[8]; hNav1.5 vs hNav1.7, fully non-inactivated",6230
same,"1.x/1.7, partially inactivated","[8]; hNav1.5 vs hNav1.7, partially inactivated",2641
same,IC50,"[9]; hNav1.8, fully non-inactivated, read-out: Mean IC50, fully non-inactivated",810 nM
same,IC50,"[9]; hNav1.8, partially inactivated, read-out: Mean IC50, partially inactivated",530 nM
same,"1.x/1.7, fully non-inactivated","[10]; hNav1.8 vs hNav1.7, fully non-inactivated",5724
same,"1.x/1.7, partially inactivated","[10]; hNav1.8 vs hNav1.7, partially inactivated",3282
same,"1.x/1.7, fully non-inactivated",[6],1
same,"1.x/1.7, partially inactivated",[6],1
same,IC50,[11],1600 nM and 2210 nM and 3250 nM
same,"1.x/1.7, fully non-inactivated","[5]; mTTX-S vs hNav1.7, fully non-inactivated",530
same,"1.x/1.7, partially inactivated",[5],111
same,"1.x/1.7, fully non-inactivated","[12]; hNav1.4 vs hNav1.7, fully non-inactivated",75
same,"1.x/1.7, partially inactivated","[12]; hNav1.4 vs hNav1.7, partially inactivated",58
same,"1.x/1.7, fully non-inactivated","[13]; hNav1.3 vs hNav1.7, fully non-inactivated",99
same,"1.x/1.7, partially inactivated","[13]; hNav1.3 vs hNav1.7, partially inactivated",76
"Cc1cccc(C)c1OCC(C)N (stereo not shown) [mexilitine, reference compound]",thermal latency / thermal hyperalgesia,[14],significantly reverse thermal hyperalgesia
"NC1=N[C@H](O)[C@H]2[C@H]3O[C@]4(O)O[C@@H]([C@@H](O)[C@@]2(N1)[C@@H]4O)[C@]3(O)CO [TTX, tetrodotoxin, reference compound]",block of TTX-sensitive Nav current,[5],completely blocked TTX-sensitive Nav current
CN1CC[C@]23c4c5ccc(O)c4O[C@H]2[C@@H](O)C=C[C@H]3[C@H]1C5 [morphine],"time spent lifting and/or licking the affected paw, second phase (5-40 min)",[15],significantly reduce pain response; also recorded: significantly reduced the pain response; also recorded: did significantly reduce
same,"formalin response, second phase (5-40 min)",[16],significantly reduce pain response; also recorded: significantly reduced
C#CC[C@H](N)C(=O)N[C@@H](Cc1ccc(O)cc1)C(=O)N[C@H]1CSSC[C@@H]2NC(=O)[C@@H]3CSSC[C@@H](C(=O)N[C@@H](CCCNC(=N)N)C(=O)N[C@@H](CCCCN)C(=O)N[C@H](C(=O)N[C@H](C(N)=O)[C@@H](C)CC)[C@@H](C)CC)NC(=O)[C@H](Cc4c[nH]c5ccccc45)NC(=O)[C@H](CC(C)C)NC(=O)[C@H](CCCCN)NC(=O)[C@H](CSSC[C@H](NC(=O)[C@H]([C@@H](C)O)NC(=O)[C@H](Cc4c[nH]c5ccccc45)NC(=O)[C@H](CCCC)NC(=O)[C@H](Cc4c[nH]c5ccccc45)NC(=O)[C@H](CCCCN)NC(=O)[C@H](CCC(N)=O)NC1=O)C(=O)N[C@@H](CC(=O)O)C(=O)N[C@@H](CO)C(=O)N[C@@H](CCCCN)C(=O)N[C@@H](CCCNC(=N)N)C(=O)N[C@@H](C)C(=O)N3)NC(=O)[C@H](CCCNC(=N)N)NC(=O)[C@H](CC(C)C)NC(=O)CNC(=O)[C@H](CCC(=O)O)NC2=O [compound 425],"1.x/1.7, fully non-inactivated",[6],1
same,"1.x/1.7, partially inactivated",[6],1
same,IC50,[11],970 nM and 700 nM
same,IC50,[17],4 nM and 2.5 nM
same,"1.x/1.7, partially inactivated",[5],6335
same,IC50,[18],8 nM and 13 nM

# — patent US9636418B2 (priority 2013, dated 2017)
